How the values were obtained:
Format in all cases: in vivo
[1] = tested on: Cassia obtusifolia (CASOB); assay: Pre-emergence test; conditions: 3 weeks after treatment
Experimental: (§1) To evaluate their herbicidal activity, compounds according to the invention are tested using a representative range of plants: […] The pre-emergence tests involve spraying a liquid formulation of the compound onto the soil in which the seeds of the plant species mentioned above has recently been sown. The soil used in the tests is a prepared horticultural loam. […] In these tests untreated sown soil are used as controls.

Lamium purpureum (LAMPU) [2] = assay: Pre-emergence test; conditions: 3 weeks after treatment
Experimental: as §1

[3] = tested on: Digitaria sanguinalis (DIGSA); assay: Pre-emergence test; conditions: 3 weeks after treatment
Experimental: as §1

[4] = tested on: Ipomoea hederacea (IPOHE); assay: Post-emergence test; conditions: 2-4 weeks after treatment
Experimental: (§2) To evaluate their herbicidal activity, compounds according to the invention are tested using a representative range of plants:
(§3) These acetone solutions are diluted with water and the resulting formulations applied at dosage levels equivalent of about 0.025 to 0.4 kg per hectare of test compound per pot. After spraying the plants are placed on greenhouse benches and are cared for in the usual manner, commensurate with conventional greenhouse practices. From 2 to 4 weeks after treatment, the seedling plants are examined and rated according to the rating system provided above.

Stellaria media (STEME) = assay: Post-emergence test; conditions: 2-4 weeks after treatment
Experimental: as §2, §3

Galium aparine (GALAP) = assay: Post-emergence test; conditions: 2-4 weeks after treatment
Experimental: as §2, §3

[5] = tested on: Lolium multiflorum (LOLMU); assay: Post-emergence test; conditions: 2-4 weeks after treatment
Experimental: as §2, §3

Setaria viridis (SETVI) = assay: Post-emergence test; conditions: 2-4 weeks after treatment
Experimental: as §2, §3

[6] = tested on: Echinochloa crus-galli (ECHCG); assay: Post-emergence test; conditions: 2-4 weeks after treatment
Experimental: as §2, §3

[7] = tested on: Abutilon theophrasti (ABUTH); assay: Post-emergence test; conditions: 2-4 weeks after treatment
Experimental: as §2, §3

[8] = tested on: Alopecurus myosuroides (ALOMY); assay: Post-emergence test; conditions: 2-4 weeks after treatment
Experimental: as §2, §3

[9] = tested on: Matricaria inodora (MATIN); assay: Post-emergence test; conditions: 2-4 weeks after treatment
Experimental: as §2, §3

[10] = tested on: Ambrosia artemisifolia (AMBEL); assay: Post-emergence test; conditions: 2-4 weeks after treatment
Experimental: as §2, §3

[11] = tested on: Cassia obtusifolia (CASOB); assay: Post-emergence test; conditions: 2-4 weeks after treatment
Experimental: as §2, §3

Lamium purpureum (LAMPU) [12] = assay: Post-emergence test; conditions: 2-4 weeks after treatment
Experimental: as §2, §3

[13] = tested on: Digitaria sanguinalis (DIGSA); assay: Post-emergence test; conditions: 2-4 weeks after treatment
Experimental: as §2, §3

weed species = assay: Post-emergence test, summary over all weeds
Experimental: as §2, §3

Cc1cc(Oc2cc(C(F)(F)F)nn2C)nc(-n2ccc(C(F)(F)F)n2)c1 [Example 2, 4-methyl-2-(-3-trifluoromethyl-1H-prazol-1-yl)-6-(1-methyl-3-trifluoromethyl-pyrazol-5-yloxy)-pyridine]
clearly superior activity: Herbicidal activity, overall judgement (weed species; versus known compound of the prior art)
9 (9 - Complete kill): Assessment rating CASOB (pre-emergence application) ([1]; 0.400 kg/ha) | Assessment rating LAMPU (pre-emergence application) (Lamium purpureum (LAMPU) [2]; 0.100 kg/ha) | Assessment rating LAMPU (pre-emergence application) (Lamium purpureum (LAMPU) [2]; 0.400 kg/ha) | Assessment rating DIGSA (pre-emergence application) ([3]; 0.013 kg/ha) | Assessment rating DIGSA (pre-emergence application) ([3]; 0.025 kg/ha) | Assessment rating DIGSA (pre-emergence application) ([3]; 0.100 kg/ha) | Assessment rating DIGSA (pre-emergence application) ([3]; 0.400 kg/ha) | Rating IPOHE (post-emergence application) ([4]; 0.025 kg/ha) | Rating IPOHE (post-emergence application) ([4]; 0.100 kg/ha) | Rating IPOHE (post-emergence application) ([4]; 0.400 kg/ha) | Rating STEME (post-emergence application) (Stellaria media (STEME); 0.100 kg/ha) | Rating STEME (post-emergence application) (Stellaria media (STEME); 0.400 kg/ha) | Rating LOLMU (post-emergence application) ([5]; 0.100 kg/ha) | Rating LOLMU (post-emergence application) ([5]; 0.400 kg/ha) | Rating SETVI (post-emergence application) (Setaria viridis (SETVI); 0.400 kg/ha) | Rating ECHCG (post-emergence application) ([6]; 0.100 kg/ha) | Rating ECHCG (post-emergence application) ([6]; 0.400 kg/ha) | Rating ABUTH (post-emergence application) ([7]; 0.400 kg/ha) | Rating CASOB (post-emergence application) ([11]; 0.025 kg/ha) | Rating CASOB (post-emergence application) ([11]; 0.100 kg/ha) | Rating CASOB (post-emergence application) ([11]; 0.400 kg/ha) | Rating LAMPU (post-emergence application) (Lamium purpureum (LAMPU) [12]; 0.100 kg/ha) | Rating LAMPU (post-emergence application) (Lamium purpureum (LAMPU) [12]; 0.400 kg/ha) | Rating DIGSA (post-emergence application) ([13]; 0.400 kg/ha)
4 (4 - Injury): Rating ALOMY (post-emergence application) ([8]; 0.025 kg/ha)
6 (6 - Herbicidal effect): Rating GALAP (post-emergence application) (Galium aparine (GALAP); 0.100 kg/ha) | Rating LOLMU (post-emergence application) ([5]; 0.025 kg/ha) | Rating SETVI (post-emergence application) (Setaria viridis (SETVI); 0.025 kg/ha) | Rating ECHCG (post-emergence application) ([6]; 0.025 kg/ha) | Rating ABUTH (post-emergence application) ([7]; 0.025 kg/ha) | Rating MATIN (post-emergence application) ([9]; 0.025 kg/ha) | Rating AMBEL (post-emergence application) ([10]; 0.025 kg/ha) | Rating DIGSA (post-emergence application) ([13]; 0.025 kg/ha)
twelve weed species: Number of weed species controlled (weed species; 0.100 kg/ha)
8 (8 - Approaching complete kill): Assessment rating CASOB (pre-emergence application) ([1]; 0.100 kg/ha) | Assessment rating LAMPU (pre-emergence application) (Lamium purpureum (LAMPU) [2]; 0.013 kg/ha) | Assessment rating LAMPU (pre-emergence application) (Lamium purpureum (LAMPU) [2]; 0.025 kg/ha) | Rating STEME (post-emergence application) (Stellaria media (STEME); 0.025 kg/ha) | Rating GALAP (post-emergence application) (Galium aparine (GALAP); 0.400 kg/ha) | Rating SETVI (post-emergence application) (Setaria viridis (SETVI); 0.100 kg/ha) | Rating ABUTH (post-emergence application) ([7]; 0.100 kg/ha) | Rating ALOMY (post-emergence application) ([8]; 0.100 kg/ha) | Rating ALOMY (post-emergence application) ([8]; 0.400 kg/ha) | Rating MATIN (post-emergence application) ([9]; 0.100 kg/ha) | Rating MATIN (post-emergence application) ([9]; 0.400 kg/ha) | Rating AMBEL (post-emergence application) ([10]; 0.100 kg/ha) | Rating AMBEL (post-emergence application) ([10]; 0.400 kg/ha) | Rating LAMPU (post-emergence application) (Lamium purpureum (LAMPU) [12]; 0.025 kg/ha) | Rating DIGSA (post-emergence application) ([13]; 0.100 kg/ha)
5 (5 - Definite injury): Rating GALAP (post-emergence application) (Galium aparine (GALAP); 0.025 kg/ha)

— patent publication US6448204B1, “Herbicidal 2-aryloxy-4-methyl-6-pyrazol-1-yl-pyridines” (BASF Aktiengesellschaft, priority 1999, dated 2002)
